From patent publication US7026281B1, “Antagonistic analogs of GH-RH inhibiting IGF-I and -II” (The Administrators of the Tulane Educational Fund, priority 1998, dated 2006)
Square brackets hold non-standard residues; d marks the D form. Peptide text beside a SMILES is read from it. * marks the point of attachment. Phe(4-Cl) = N[C@@H](Cc1ccc(Cl)cc1)C(=O)O; hArg = N=C(N)NCCCC[C@H](N)C(=O)O; Nle = CCCC[C@H](N)C(=O)O; Abu = CC[C@H](N)C(=O)O; PhAc = O=C(Cc1ccccc1)*

What was measured:
[1] = tested on: hGH-RH(1–29)NH2 induced GH release; test: Inhibition of GH release in superfused rat pituitary system; type: cell-based; conditions: for Inhibition of GH release (%) 30 min / Inhibition of GH release (%) 60 min / Inhibition of GH release (%) 90 min / Inhibition of GH release (%) 120 min / Inhibition of GH release (%) 0 min: antagonist 30 nM; for Inhibition of GH release (%) 30 min: 1 nM hGH-RH(1–29)NH2 30 min later; for Inhibition of GH release (%) 60 min: 1 nM hGH-RH(1–29)NH2 60 min later; for Inhibition of GH release (%) 90 min: 1 nM hGH-RH(1–29)NH2 90 min later; for Inhibition of GH release (%) 120 min: 1 nM hGH-RH(1–29)NH2 120 min later; for Inhibition of GH release (%) 0 min: 1 nM hGH-RH(1–29)NH2 at 0 min
How it was run: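 Superfused rat pituitary cells preincubated 9 min with peptide, then challenged for 3 min with 1 nM hGH-RH(1–29)NH2 at 0, 30, 60, 90 and 120 min. Rat GH measured by double-antibody RIA; net integral GH responses expressed as percent of the original 1 nM GH-RH-induced response.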

[2] = biological target: T1, rat pituitary GH-RH receptors (Rattus norvegicus, UniProt Q02644); test: GH-RH radioreceptor binding assay, rat anterior pituitary membrane homogenates; conditions: for Ki: competition with [His1,125I-Tyr10,Nle27]hGH-RH(1–32)NH2; for R.A. (relative affinity compared to Standard antagonist): ratio of Ki values
T1 construct: from tissue; host or cells: anterior pituitary of male Sprague-Dawley rats, crude membrane homogenates
T1 sequence (Q02644 23-464): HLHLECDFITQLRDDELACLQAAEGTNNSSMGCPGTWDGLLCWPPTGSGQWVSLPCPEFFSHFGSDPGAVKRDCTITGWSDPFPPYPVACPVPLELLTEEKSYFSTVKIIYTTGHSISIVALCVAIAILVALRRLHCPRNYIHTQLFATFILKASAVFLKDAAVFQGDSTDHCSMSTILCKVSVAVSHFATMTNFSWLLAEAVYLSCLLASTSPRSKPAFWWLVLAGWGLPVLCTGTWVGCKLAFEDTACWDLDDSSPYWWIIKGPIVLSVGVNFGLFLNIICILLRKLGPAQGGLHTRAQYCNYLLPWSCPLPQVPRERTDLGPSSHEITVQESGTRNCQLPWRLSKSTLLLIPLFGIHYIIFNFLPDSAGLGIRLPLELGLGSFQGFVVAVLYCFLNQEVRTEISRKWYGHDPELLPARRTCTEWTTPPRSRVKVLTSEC
How it was run: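 Antagonists competed with [His^1,^125I-Tyr^10,Nle^27]hGH-RH(1–32)NH2 for binding to crude anterior pituitary membranes from male Sprague-Dawley rats, with γ-counting of the pellet. Ki came from Munson–Rodbard analysis. Relative affinity is the Ki of the test antagonist divided by the Ki of standard [Ac-Tyr^1,D-Arg^2]hGH-RH(1–29)NH2.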

[3] = tested on: GH release stimulated by hGH-RH(1–29)NH2; test: In vivo inhibition of serum GH response in rats; parameters: species or system rat; conditions: for Inhibition of the GH release stimulated by hGH-RH(1–29)NH2 (in words): 80 μg/kg i.v., rats
How it was run: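 Male Sprague-Dawley rats (200–250 g) under Nembutal received antagonist at 80 μg/kg i.v., then GH-RH(1–29)NH2 at 3 μg/kg after 5, 15, 30 or 60 min; controls received vehicle (5.5% mannitol). GH was measured by RIA before antagonist and 5 min after GH-RH, and inhibition was calculated as […].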

[4] = antagonist 80 μg/kg i.v. 5 min before GH-RH
[5] = antagonist 80 μg/kg i.v. 15 min before GH-RH
[6] = antagonist 80 μg/kg i.v. 15 min before GH-RH 3 μg/kg
[7] = antagonist 80 μg/kg i.v. 30 min before GH-RH
[8] = antagonist 80 μg/kg i.v. 30 min before GH-RH 3 μg/kg
[9] = antagonist 80 μg/kg i.v. 60 min before GH-RH
[10] = antagonist 80 μg/kg i.v. 60 min before GH-RH 3 μg/kg
[11] = rGH=GHblood1/GHblood0, antagonist 80 μg/kg i.v. 5 min before GH-RH 3 μg/kg

Structure (SMILES)	Inhibition of GH release (%) 30 min [1] [%]	Inhibition of GH release (%) 60 min [1] [%]	Inhibition of GH release (%) 90 min [1] [%]	Inhibition of GH release (%) 120 min [1] [%]	Inhibition of GH release (%) 0 min [1] [%]	Ki [2] [pM]	R.A. (relative affinity compared to Standard antagonist) [2]	Inhibition of the GH release stimulated by hGH-RH(1–29)NH2 (in words) [3]	Relative inhibition % of GH response [3, 4] [%]	Relative inhibition % of GH response [3, 5] [%]	GH response mean ± S.E.M. [3, 6]	Relative inhibition % of GH response [3, 7] [%]	GH response mean ± S.E.M. [3, 8]	Relative inhibition % of GH response [3, 9] [%]	GH response mean ± S.E.M. [3, 10]	GH response mean ± S.E.M. [3, 11]	Duration of complete inhibition of the GH-RH induced GH release ([1]; standard test conditions) [min]
CCCC[C@H](NC(=O)[C@@H](NC(=O)[C@H](CC(=O)O)NC(=O)[C@H](CCC(N)=O)NC(=O)[C@H](CC(C)C)NC(=O)[C@H](CC(C)C)NC(=O)[C@H](CCCCN)NC(=O)[C@H](CCCNC(=N)N)NC(=O)[C@H](C)NC(=O)[C@H](CO)NC(=O)[C@H](CC(C)C)NC(=O)[C@H](CCC(N)=O)NC(=O)[C@H](CC)NC(=O)[C@H](CC(C)C)NC(=O)[C@@H](NC(=O)[C@H](CCCCN)NC(=O)[C@H](CCCNC(=N)N)NC(=O)[C@H](Cc1ccc(OC)cc1)NC(=O)[C@H](CCCCNC(=N)N)NC(=O)[C@H](CC(N)=O)NC(=O)[C@@H](NC(=O)[C@H](Cc1ccc(Cl)cc1)NC(=O)[C@@H](NC(=O)[C@H](C)NC(=O)[C@H](CC(=O)O)NC(=O)[C@@H](CCCNC(=N)N)NC(=O)[C@H](Cc1ccc(O)cc1)NC(=O)Cc1ccccc1)[C@@H](C)CC)[C@@H](C)O)C(C)C)[C@@H](C)CC)C(=O)N[C@H](CCCNC(=N)N)C(=O)N[C@@H](CCCCNC(=N)N)C(N)=O [Peptide 3, [PhAc^0, D-Arg^2, Phe(pCl)^6, Har^9, Tyr(Me)^10, Abu^15, Nle^27, D-Arg^28, Har^29]hGH-RH(1–29)NH2] (PhAc-Y[dR]DAI[Phe(4-Cl)]TN[hArg]Y(Me)RKVL[Abu]QLSARKLLQDI[Nle][dR][hArg]-NH2)	98	91	92	87	85	68	43	strong and long-lasting inhibition	68	61	3.63 ± 0.80	41	4.89 ± 0.95	34	5.36 ± 0.63	3.01 ± 0.41	
CCCC[C@H](NC(=O)[C@@H](NC(=O)[C@H](CC(=O)O)NC(=O)[C@H](CCC(N)=O)NC(=O)[C@H](CC(C)C)NC(=O)[C@H](CC(C)C)NC(=O)[C@H](CCCCN)NC(=O)[C@H](CCCNC(=N)N)NC(=O)[C@H](C)NC(=O)[C@H](CO)NC(=O)[C@H](CC(C)C)NC(=O)[C@H](CCC(N)=O)NC(=O)[C@H](CC)NC(=O)[C@H](CC(C)C)NC(=O)[C@@H](NC(=O)[C@H](CCCCN)NC(=O)[C@H](CCCNC(=N)N)NC(=O)[C@H](Cc1ccc(O)cc1)NC(=O)[C@H](CCCNC(=N)N)NC(=O)[C@H](CC(N)=O)NC(=O)[C@@H](NC(=O)[C@H](Cc1ccc(Cl)cc1)NC(=O)[C@@H](NC(=O)[C@H](C)NC(=O)[C@H](CC(=O)O)NC(=O)[C@@H](CCCNC(=N)N)NC(=O)[C@H](Cc1ccc(O)cc1)NC(=O)Cc1ccccc1)[C@@H](C)CC)[C@@H](C)O)C(C)C)[C@@H](C)CC)C(=O)N[C@H](CCCNC(=N)N)C(=O)N[C@@H](CCCCNC(=N)N)C(N)=O [Peptide 1, [PhAc^0, D-Arg^2, Phe(pCl)^6, Arg^9, Abu^15, Nle^27, D-Arg^28, Har^29]hGH-RH(1–29)NH2] (PhAc-Y[dR]DAI[Phe(4-Cl)]TNRYRKVL[Abu]QLSARKLLQDI[Nle][dR][hArg]-NH2)	100	100	100	94	100	44	67	strong and long-lasting inhibition	95	68	1.87 ± 0.13	64	1.97 ± 0.16	−8	3.89 ± 0.65	1.13 ± 0.13	90
